Data published in patent publication US20260021122A1, “CANNABINOIDS AND USES THEREOF IN TREATMENT OF A DISEASE” (TECHNION RESEARCH & DEVELOPMENT FOUNDATION LIMITED, priority 2022, published 2026).

Legend:
CSF-1 [1] = assay: ELISA of secreted CSF-1 in media of B16F10 cells; assay type: cell-based, murine; conditions: summary statement of the discussion
Experimental: The media from B16F10 and A375 cell lines, or homogenates from B16F10 tumors, that were treated as indicated for 24 hours, were collected and the protein concentration of MCP-1, MIP-2, C-C Motif Chemokine Ligand 5 (CCL5), and CSF-1 were measured by Quantikine Mouse M-CSF Immunoassay solid-phase ELISA kit (R&D systems, Cat #MMC00) as described in the manufacture's protocol.

CSF-1 [2] = assay: CSF-1 protein levels in B16F10 cells by confocal microscopy and western blot; assay type: cell-based, murine; conditions: 1.5 μg/ml CBG or 2 μg/ml 3704, 24 hours, both methods
Experimental: B16F10 cells were seeded on 13 mm coverslips (Bar Naor Ltd., Cat #BN1001-13-1CN) and treated with either synthetic CBG or Cannabis extract 3704 for 24 hours. Then, cells were fixed at room temperature with 4% PFA (Electron Microscopy Sciences, Cat #15710) in PBS (Sartorius, Cat #02-023-1A) for 20 minutes, permeabilized by 0.3% Triton-100× (Sigma, Cat #T8787) in PBS for 10 minutes and Blocked with a solution containing 5% Normal Goat Serum (Abcam, Cat #ab7481), 0.25% Gelatin (Sigma-Aldrich, Cat #G7041) and 0.1% Triton-X100 in PBS for 1 hour. […] Analysis was conducted using the IMARIS software and results were calculated using the formula: mean AF-488 intensity divided by the number of nuclei.
B16F10 cells, and sorted MO-MDSC and PMN-MDSC achieved as described, were lysed in RIPA buffer (Sigma, Cat #R0278) supplemented with Protease/Phosphatase Inhibitor Cocktail (Cell signaling, Cat #5872S) on ice for 20 minutes. Total protein concentrations were measured using the detergent-compatible protein assay (Bio-Rad, Cat #5000113 and 5000114) and equal amounts were loaded onto a 4%-20% gradient gel (Invitrogen, Cat #XPO4202) and semidry transferred into a nitrocellulose membrane (Bio-Rad, Cat #1704159). […]

BM-MDSCs [3] = assay: BM-MDSCs treated with conditioned media from treated B16F10 cells: myeloid subpopulation frequencies and F4/80; assay type: cell-based, mice; conditions: for reduction in the F4/80 MFI in Ly6C+ cells compared to DMSO: CM from treated B16F10 cells
Experimental: (§1) Bone-marrow-derived cells (BMDCs) were isolated from the fibula and tibia bones of healthy female WT C57BL/6 mice (8-12-week-old). Red blood cells were removed by using red blood lysis buffer (Biological industries, Cat #01-888-1B). Remaining cells were counted and 1×10^6 cells were seeded in complete RPMI (Sigma, Cat #R8758) containing 10% FBS (Sigma, Cat #F7524), 1% L-Glutamine (Sartorius, Cat #03-020-1B), 1% Penicillin/[…] (Sartorius, Cat #03-031-1B), 1% MEM-Eagle (Sartorius, Cat #01-340-1B), 2.5% HEPES (Sartorius, Cat #03-025-1B) and 1% sodium pyruvate (Sartorius, Cat #03-042-1B) and supplemented with 20 ng/ml of GM-CSF and IL-6 (R&D systems, 415-ML and 406-ML). Cells were incubated at 37° C. and 5% CO2 for 4 days and then treated with conditioned media, which was the media collected from B16F10 cells treated with either DMSO, CBG, or the high-CBG extract 3704 as indicated.
(§2) To differentiate the subpopulation of myeloid cells, BMDCs and myeloid cells from tumors were stained for the extracellular makers Ly6C-BV421 (BioLegend, Clone HK1.4; Cat #128032) or Ly6C-FITC (BioLegend, Cat #128096, Clone HK1.4), Ly6G-APC (BioLegend, Clone 1A8; Cat #127614), Ly6G-BV421 (BioLegend, Cat #127627, clone 1A8), PECy7-F4/80 (BioLegend, Clone BM8 Cat #123113), BV605-CD86 (BioLegend, Clone GL-1, Cat #105037), APC-CD206 (Biolegend, Clone CO68C2, Cat #141708) and BV711-CD45 (BioLegend, Clone 30F11, Cat #103147). Cells from tumors were also stained with PE-CD3+ (BioLegend, Clone 17A2, Cat #100206) to identify the overall T-cell population. To characterize the cells in the subpopulations, cells were fixed and permeabilized with the Intracellular Fixation and Permeabilization Buffer Set (eBioscience Cat #88-8824-00) and stained with FITC-iNOS (Thermo, Clone CXNFT, Cat #53592082) or FITC-Arginase-1 (Thermo, Clone AlexF5, Cat #53-3697-82). These cells were also stained with Fixable viability Dye (FVD)-eflour 780 (Thermo, Cat #65086514) to exclude dead cells.

BM-MDSCs [4] = assay: iNOS and Arg-1 expression by BM-MDSC subpopulations (flow cytometry, western blot); assay type: cell-based, mice
Experimental: as §1, §2
To analyze the two subpopulations of BM-MDSCs, the cells were stained with Ly6C-BV421 and Ly6G-APC and sorted into MO-MDSC or PMN-MDSC using the BD FACSAria III Cell Sorter instrument (BD Biosciences). Directly after sorting, the two separate subpopulations were co-cultured with CD8+ T-cells or lysed and further analyzed via western blot.
B16F10 cells, and sorted MO-MDSC and PMN-MDSC achieved as described, were lysed in RIPA buffer (Sigma, Cat #R0278) supplemented with Protease/Phosphatase Inhibitor Cocktail (Cell signaling, Cat #5872S) on ice for 20 minutes. Total protein concentrations were measured using the detergent-compatible protein assay (Bio-Rad, Cat #5000113 and 5000114) and equal amounts were loaded onto a 4%-20% gradient gel (Invitrogen, Cat #XPO4202) and semidry transferred into a nitrocellulose membrane (Bio-Rad, Cat #1704159). The membrane was incubated with the primary antibodies CSF-1 (Santa Cruz; Clone D-4; #sc-365779), iNOS (Abcam; Clone #ab15323) or GAPDH (Cell Signaling Technology, Cat #14C10). Secondary antibodies used in this study were HRP-conjugated and the membranes were developed with the ECL detection kit (Millipore, Cat #WBLUR).

[5] = CM of treated B16F10 vs CM of DMSO-treated B16F10, 24 hours, flow cytometry

Question: `CCCCCc1cc(O)c(C/C=C(\C)CCC=C(C)C)c(O)c1` [CBG, cannabigerol] was tested. Which “efficiency of CSF-1 secretion reduction, comparison between treatments (discussion)” value (CSF-1 [1]) did it give?
Answer: reduce CSF-1 secretion more efficiently than the psychoactive THC

Question: What about the “CSF-1 protein levels in B16F10 cells” value (CSF-1 [2]) of the same molecule?
Answer: decreased CSF-1 protein levels

Question: What about the “overall percentage of monocytes (Ly6C+/Ly6G− cells)” value (BM-MDSCs [3]; BM-MDSCs treated 24 hours with CM from B16F10 treated with CBG 1.5 μg/ml or 3704 2 μg/ml) of the same molecule?
Answer: did not change

Question: What about the “PMN-MDSC frequencies (Ly6C+/Ly6G+)” value (BM-MDSCs [3]; CM from B16F10 treated with CBG 1.5 μg/ml or 3704 2 μg/ml) of the same molecule?
Answer: not affected by any treatment

Question: And the “MO-MDSC (Ly6Chigh/Ly6G−) percentages” value (BM-MDSCs [3]; CM from B16F10 treated with CBG 1.5 μg/ml or 3704 2 μg/ml, compared to B16F10 treated with DMSO)?
Answer: significant decrease in MO-MDSC percentages

Question: What about the “reduction in the F4/80 MFI in Ly6C+ cells compared to DMSO” value (BM-MDSCs [3]; 24 hours) of the same molecule?
Answer: trend was apparent after 24 hours

Question: And the “reduction in the F4/80 MFI in Ly6C+ cells compared to DMSO” value (BM-MDSCs [3]; 48 hours)?
Answer: statistically significant after 48 hours

Question: And the “iNOS expression by western blot in sorted subsets” value (BM-MDSCs [4]; CM from treated B16F10 vs CM of DMSO-treated B16F10, sorted MO-MDSC and PMN-MDSC)?
Answer: reduction of iNOS expression specifically in MO-MDSCs

Question: What about the “iNOS expression by MO-MDSC” value (BM-MDSCs [4]; [5]) of the same molecule?
Answer: significantly decreased iNOS expression

Question: What about the “iNOS expression by PMN-MDSC” value (BM-MDSCs [4]; [5]) of the same molecule?
Answer: did not detect a significant decrease in iNOS expression

Question: What about the “Arg-1 expression in MO-MDSCs and PMN-MDSCs” value (BM-MDSCs [4]; CM of treated B16F10 vs CM of DMSO-treated B16F10, 24 hours, flow cytometry, neither subpopulation) of the same molecule?
Answer: did not detect a significant difference in Arg-1 expression

Question: And the “iNOS expression in directly treated BM-MDSCs (each subpopulation)” value (BM-MDSCs [4]; medium from untreated B16F10 together with 2 g/ml CBG or 6 μg/ml 3704 for 24 hours, vs DMSO)?
Answer: did not detect any significant differences
